Data reported in patent publication US20230416248A1, “COMPOUNDS AND USES THEREOF” (Foghorn Therapeutics Inc., priority 2020, published 2023).
Read-outs that look alike come from different tables or passages of the source.

Key:
[1] = molecular target: T1, BRM (Homo sapiens, UniProt P51531); test: ATPase catalytic activity of BRM, ADP-Glo in vitro biochemical assay; conditions: for IC50: 30 nM BRM, 400 μM ATP; for Ratio* (BRG1 IC50 (μM) divided by BRM IC50 (μM)): selectivity ratio BRG1 IC50 / BRM IC50
T1 construct: made in house; host or cells: High Five insect cells
In short: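 ADP-Glo luminescence, after depletion of leftover ATP and conversion of ADP, reported the activity. The 1 h room-temperature reaction held 400 μM ATP, 20 nM salmon sperm DNA and 30 nM BRM in 20 mM Tris pH 8, 20 mM MgCl2, 50 mM NaCl, 0.1% Tween-20, 1 mM DTT.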

[2] = molecular target: T2, BRG-1 (Homo sapiens, UniProt P51532); test: ATPase catalytic activity of BRG-1, ADP-Glo in vitro biochemical assay; conditions: 30 nM BRG-1, 400 μM ATP, read-out: BRG1 IC50
T2 construct: made in house; host or cells: High Five insect cells
In short: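 In this in vitro format, BRG-1 hydrolysis product ADP is detected via a two-step ADP-Glo workup (ATP removal, then ADP-to-ATP conversion with luciferase detection) followed by a luminescence read.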

[3] = ATPase catalytic activity, ADP-Glo

T1 sequence (P51531 whole entry): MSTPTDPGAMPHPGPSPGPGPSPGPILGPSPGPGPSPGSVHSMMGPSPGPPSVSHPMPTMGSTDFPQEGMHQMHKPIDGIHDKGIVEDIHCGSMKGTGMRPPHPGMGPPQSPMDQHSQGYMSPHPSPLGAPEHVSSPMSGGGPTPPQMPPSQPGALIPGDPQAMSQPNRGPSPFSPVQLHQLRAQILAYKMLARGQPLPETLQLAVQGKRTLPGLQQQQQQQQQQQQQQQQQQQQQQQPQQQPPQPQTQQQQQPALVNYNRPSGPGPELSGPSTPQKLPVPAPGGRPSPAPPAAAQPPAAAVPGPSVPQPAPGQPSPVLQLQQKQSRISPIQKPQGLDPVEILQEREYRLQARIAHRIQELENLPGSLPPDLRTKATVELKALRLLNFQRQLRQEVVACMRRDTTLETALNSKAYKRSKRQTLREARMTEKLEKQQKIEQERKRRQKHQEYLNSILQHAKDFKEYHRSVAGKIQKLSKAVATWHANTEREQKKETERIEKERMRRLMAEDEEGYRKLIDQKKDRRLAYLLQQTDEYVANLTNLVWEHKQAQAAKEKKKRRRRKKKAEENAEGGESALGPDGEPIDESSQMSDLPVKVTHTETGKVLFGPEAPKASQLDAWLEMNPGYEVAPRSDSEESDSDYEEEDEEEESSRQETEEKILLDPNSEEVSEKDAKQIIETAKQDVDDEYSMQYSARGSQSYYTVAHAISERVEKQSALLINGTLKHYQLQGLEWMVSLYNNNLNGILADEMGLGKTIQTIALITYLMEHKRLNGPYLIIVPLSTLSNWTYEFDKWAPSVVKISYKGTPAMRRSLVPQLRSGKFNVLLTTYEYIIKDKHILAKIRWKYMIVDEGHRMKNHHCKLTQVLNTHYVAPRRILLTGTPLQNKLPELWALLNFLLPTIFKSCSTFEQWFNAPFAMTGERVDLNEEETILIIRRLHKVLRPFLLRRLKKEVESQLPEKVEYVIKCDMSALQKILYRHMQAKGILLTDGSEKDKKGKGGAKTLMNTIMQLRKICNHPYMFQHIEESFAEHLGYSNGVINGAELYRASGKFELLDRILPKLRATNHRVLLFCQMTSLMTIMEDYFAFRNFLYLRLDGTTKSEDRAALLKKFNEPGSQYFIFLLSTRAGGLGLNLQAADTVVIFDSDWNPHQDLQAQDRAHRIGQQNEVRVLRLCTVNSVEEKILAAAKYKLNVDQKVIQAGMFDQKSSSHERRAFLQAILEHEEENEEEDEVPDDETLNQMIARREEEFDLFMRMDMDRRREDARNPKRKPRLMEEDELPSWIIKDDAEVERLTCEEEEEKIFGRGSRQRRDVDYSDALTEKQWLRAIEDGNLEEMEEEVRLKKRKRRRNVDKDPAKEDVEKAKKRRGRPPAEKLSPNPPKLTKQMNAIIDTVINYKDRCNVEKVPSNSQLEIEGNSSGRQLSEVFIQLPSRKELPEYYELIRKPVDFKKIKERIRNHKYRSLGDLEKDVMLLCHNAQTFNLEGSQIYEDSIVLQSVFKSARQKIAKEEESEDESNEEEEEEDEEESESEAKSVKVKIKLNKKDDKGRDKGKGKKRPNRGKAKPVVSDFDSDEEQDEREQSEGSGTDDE
T2 sequence (P51532 whole entry): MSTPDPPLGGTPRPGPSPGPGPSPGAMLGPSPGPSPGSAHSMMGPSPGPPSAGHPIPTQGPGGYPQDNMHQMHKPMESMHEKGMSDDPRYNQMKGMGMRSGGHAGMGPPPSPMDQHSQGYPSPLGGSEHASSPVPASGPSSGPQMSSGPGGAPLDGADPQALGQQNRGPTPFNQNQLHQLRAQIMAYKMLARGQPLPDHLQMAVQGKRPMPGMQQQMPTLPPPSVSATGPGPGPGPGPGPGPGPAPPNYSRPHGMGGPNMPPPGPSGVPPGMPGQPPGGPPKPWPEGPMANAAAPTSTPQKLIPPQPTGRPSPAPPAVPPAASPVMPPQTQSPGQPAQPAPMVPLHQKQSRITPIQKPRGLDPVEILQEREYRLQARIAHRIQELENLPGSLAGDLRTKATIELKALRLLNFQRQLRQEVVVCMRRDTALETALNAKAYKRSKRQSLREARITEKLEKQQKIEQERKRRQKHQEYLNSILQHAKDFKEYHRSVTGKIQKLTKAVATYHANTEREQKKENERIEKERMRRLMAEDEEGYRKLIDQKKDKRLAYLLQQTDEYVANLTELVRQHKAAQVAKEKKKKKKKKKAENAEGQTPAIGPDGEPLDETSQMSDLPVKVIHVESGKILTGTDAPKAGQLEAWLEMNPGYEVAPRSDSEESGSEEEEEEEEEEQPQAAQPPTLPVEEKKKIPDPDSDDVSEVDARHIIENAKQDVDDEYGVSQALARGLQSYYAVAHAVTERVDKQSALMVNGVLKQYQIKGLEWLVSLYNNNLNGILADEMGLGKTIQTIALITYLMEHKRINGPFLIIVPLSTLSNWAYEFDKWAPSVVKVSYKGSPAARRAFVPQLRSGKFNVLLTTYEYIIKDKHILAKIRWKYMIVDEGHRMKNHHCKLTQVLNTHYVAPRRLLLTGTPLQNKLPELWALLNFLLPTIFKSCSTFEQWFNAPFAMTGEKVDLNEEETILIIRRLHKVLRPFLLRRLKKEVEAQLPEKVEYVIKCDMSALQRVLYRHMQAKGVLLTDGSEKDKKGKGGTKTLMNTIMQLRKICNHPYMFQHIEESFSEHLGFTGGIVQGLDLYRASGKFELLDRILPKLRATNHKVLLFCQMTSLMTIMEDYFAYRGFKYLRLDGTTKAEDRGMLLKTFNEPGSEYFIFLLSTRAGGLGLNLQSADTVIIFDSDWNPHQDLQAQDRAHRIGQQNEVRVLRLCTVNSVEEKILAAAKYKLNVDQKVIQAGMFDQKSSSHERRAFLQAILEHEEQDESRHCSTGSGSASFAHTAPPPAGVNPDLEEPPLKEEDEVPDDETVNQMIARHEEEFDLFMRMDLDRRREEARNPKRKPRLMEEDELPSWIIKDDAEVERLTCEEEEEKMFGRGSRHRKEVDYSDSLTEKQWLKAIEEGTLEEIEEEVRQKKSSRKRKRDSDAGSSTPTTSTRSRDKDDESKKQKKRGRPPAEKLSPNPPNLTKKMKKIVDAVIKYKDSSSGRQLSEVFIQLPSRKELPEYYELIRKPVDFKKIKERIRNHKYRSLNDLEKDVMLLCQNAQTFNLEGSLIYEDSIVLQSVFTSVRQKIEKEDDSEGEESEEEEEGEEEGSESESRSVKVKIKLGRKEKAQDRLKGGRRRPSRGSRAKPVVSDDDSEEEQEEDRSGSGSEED

C[C@@H]1CN(c2cccc(-c3ccc4cnc(CNC(=O)c5cc(F)c6c(c5)S(=O)(=O)[C@H](C)CN6C)cc4n3)n2)C[C@H](C)O1 [Compound 642]
IC50 [1, 3]: 0.156 µM | Ratio* ([1]; ratio of BRG1 IC50 to BRM IC50): 18.87 | IC50 [2, 3]: 2.95 µM

[2H]C1([2H])OC([2H])([2H])[C@H](C)S(=O)(=O)c2cc(C(=O)NCc3cc4nc(-c5cccc(N6C[C@@H](C)O[C@@H](C)C6)n5)ccc4cn3)ccc21 [Compound 715]
IC50 ([1]; ADP-Glo ATPase assay): 0.0054 µM | Ratio* ([1]; ratio BRG1 IC50 / BRM IC50): 4.12 | IC50 ([2]; ADP-Glo ATPase assay): 0.0221 µM

O=C(NCc1cc2nc(-c3cccc(C4CC4)n3)ccc2nn1)c1cc(F)c2c(c1)S(=O)(=O)CCOC2 [Compound 422]
IC50 [1, 3]: 0.0109 µM | Ratio* ([1]; ratio of BRG1 IC50 to BRM IC50): 28.45 | IC50 [2, 3]: 0.31 µM

COCCS(=O)(=O)c1cc(C(=O)NCc2cc3nc(-c4cncc(C5CC5)n4)ccc3cn2)ccc1Cl [Compound 238]
IC50 ([1]; ADP-Glo ATPase assay): 0.261 µM | Ratio* (BRG1 IC50 (μM) divided by BRM IC50 (μM)) [1]: 19.12 | IC50 ([2]; ADP-Glo ATPase assay): 5 µM

C[C@H]1COCc2ccc(C(=O)NCc3cc4nc(-c5cccc(OC(F)(F)F)n5)ccc4cn3)cc2S1(=O)=O [Compound 388]
IC50 [1, 3]: 0.0184 µM | Ratio* ([1]; ratio of BRG1 IC50 to BRM IC50): 31.86 | IC50 [2, 3]: 0.587 µM

C[C@@H]1C=C(c2cccc(-c3ccc4cnc(CNC(=O)c5ccc6c(c5)S(=O)(=O)CCOC6)cc4n3)n2)C[C@H](C)O1 [Compound 45]
IC50 ([1]; ADP-Glo ATPase assay): 0.0051 µM | Ratio* (BRG1 IC50 (μM) divided by BRM IC50 (μM)) [1]: 3.87 | IC50 ([2]; ADP-Glo ATPase assay): 0.0198 µM

C[C@@H]1CN(c2cccc(-c3ccc4cnc(CNC(=O)c5ccc6c(c5)S(=O)(=O)[C@@H](C)COC6)cc4n3)n2)C[C@H](C)O1 [Compound 155]
IC50 ([1]; ADP-Glo ATPase assay): 0.0045 µM | Ratio* (BRG1 IC50 (μM) divided by BRM IC50 (μM)) [1]: 5.59 | IC50 ([2]; ADP-Glo ATPase assay): 0.0252 µM

O=C(NCc1cc2nc(-c3cccc(N4CCC4)c3)ccc2cn1)c1ccc2c(c1)S(=O)(=O)CCOC2 [Compound 255]
IC50 ([1]; ADP-Glo ATPase assay): 0.0364 µM | Ratio* (BRG1 IC50 (μM) divided by BRM IC50 (μM)) [1]: 13.37 | IC50 ([2]; ADP-Glo ATPase assay): 0.487 µM

O=C(NCc1cc2nc(N3CCOc4cc(C(F)F)ncc43)ccc2cn1)c1ccc2c(c1)S(=O)(=O)CCOC2 [Compound 777]
IC50 ([1]; ADP-Glo ATPase assay): 0.074 µM | Ratio* ([1]; ratio BRG1 IC50 / BRM IC50): 13.26 | IC50 ([2]; ADP-Glo ATPase assay): 0.981 µM

CS(=O)(=O)c1cc(C(=O)NCc2cc3nc(-c4cncc(C5CC5)n4)ccc3cn2)cnc1C(F)F [Compound 277]
IC50 ([1]; ADP-Glo ATPase assay): 0.615 µM | Ratio* (BRG1 IC50 (μM) divided by BRM IC50 (μM)) [1]: 8.72 | IC50 ([2]; ADP-Glo ATPase assay): 5.36 µM

O=C(NCc1cc2nc(-c3cccc(N4CCC4)n3)ccc2nn1)c1ccc2c(c1)S(=O)(=O)CCOC2 [Compound 57]
IC50 ([1]; ADP-Glo ATPase assay): 0.008 µM | IC50 ([2]; ADP-Glo ATPase assay): 0.118 µM

O=C(NCc1cc2nc(-c3cncc(C4CC4)n3)ccc2cn1)c1cnc2c(c1)S(=O)(=O)CCCCC2 [Compound 450]
IC50 [1, 3]: 0.0149 µM | Ratio* ([1]; ratio of BRG1 IC50 to BRM IC50): 12.27 | IC50 [2, 3]: 0.183 µM

COc1nn([C@H]2C[C@H](F)C2)cc1-c1ccc2cnc(CNC(=O)c3ccc4c(c3)S(=O)(=O)CCOC4)cc2n1 [Compound 152]
IC50 ([1]; ADP-Glo ATPase assay): 0.136 µM | Ratio* (BRG1 IC50 (μM) divided by BRM IC50 (μM)) [1]: 15.77 | IC50 ([2]; ADP-Glo ATPase assay): 2.14 µM

O=C(NCc1cc2nc(N3CCCc4cnccc43)ccc2cn1)c1ccc2c(c1)S(=O)(=O)CCOC2 [Compound 90]
IC50 ([1]; ADP-Glo ATPase assay): 0.166 µM | Ratio* (BRG1 IC50 (μM) divided by BRM IC50 (μM)) [1]: 12.89 | IC50 ([2]; ADP-Glo ATPase assay): 2.14 µM

C[C@@H]1CN(c2nccc(-c3ccc4cnc(CNC(=O)c5ccc(C(F)F)c(S(C)(=O)=O)c5)cc4n3)n2)C[C@H](C)O1 [Compound 157]
IC50 ([1]; ADP-Glo ATPase assay): 0.0145 µM | Ratio* (BRG1 IC50 (μM) divided by BRM IC50 (μM)) [1]: 21.99 | IC50 ([2]; ADP-Glo ATPase assay): 0.32 µM

O=C(NCc1cc2nc(N3CCOc4nc(C5CC5)ccc43)ccc2cn1)c1ccc2c(c1)S(=O)(=O)CCOC2 [Compound 843]
IC50 ([1]; ADP-Glo ATPase assay): 0.0562 µM | Ratio* ([1]; ratio BRG1 IC50 / BRM IC50): 8.61 | IC50 ([2]; ADP-Glo ATPase assay): 0.484 µM

CN1CCc2ccc(-c3ccc4cnc(CNC(=O)c5ccc6c(c5)S(=O)(=O)CCOC6)cc4n3)nc21 [Compound 190]
IC50 ([1]; ADP-Glo ATPase assay): 0.0459 µM | Ratio* (BRG1 IC50 (μM) divided by BRM IC50 (μM)) [1]: 8.57 | IC50 ([2]; ADP-Glo ATPase assay): 0.394 µM

COc1cnc2c(c1)CCCN2c1ccc2cnc(CNC(=O)c3ccc4c(c3)S(=O)(=O)CCOC4)cc2n1 [Compound 565]
IC50 [1, 3]: 0.0115 µM | Ratio* ([1]; ratio of BRG1 IC50 to BRM IC50): 12.06 | IC50 [2, 3]: 0.138 µM

O=C(NCc1cc2nc(-c3cccc(N4CC[C@H]5C[C@H]5C4)n3)ccc2cn1)c1ccc2c(c1)S(=O)(=O)CCOC2 [Compound 322]
IC50 [1, 3]: 0.011 µM | Ratio* ([1]; ratio of BRG1 IC50 to BRM IC50): 10.96 | IC50 [2, 3]: 0.12 µM

CC[C@@H]1CCS(=O)(=O)c2cc(C(=O)NCc3cc4nc(-c5cccc(N6C[C@@H](C)O[C@@H](C)C6)n5)ccc4cn3)ccc2O1 [Compound 580]
IC50 [1, 3]: 0.106 µM | Ratio* ([1]; ratio of BRG1 IC50 to BRM IC50): 16.67 | IC50 [2, 3]: 1.76 µM

Cc1cc(C(=O)NCc2cc3nc(-c4cccc(N5C[C@@H](C)O[C@@H](C)C5)n4)ccc3cn2)cc2c1COC[C@H](C)S2(=O)=O [Compound 457]
IC50 [1, 3]: 0.0059 µM | Ratio* ([1]; ratio of BRG1 IC50 to BRM IC50): 8.14 | IC50 [2, 3]: 0.0483 µM
